In patent publication US11739068B2, “Polymorphs of N-[(3-fluoro-4-methoxypyridin-2-yl)methyl]-3-(methoxymethyl)-1-({4-[(2-oxopyridin-1-yl)methyl]phenyl}methyl)pyrazole-4-carboxamide and salts thereof” (KALVISTA PHARMACEUTICALS LIMITED, priority 2016, dated 2023):
One block for each molecule: values may come before it.

Key:
[1] = in vivo; cited from earlier work
Human KLK1 = biological target: T1, Human KLK1 (Homo sapiens, UniProt P06870); test: Determination of the IC50 for KLK1; assay type: biochemical; details: 25° C., fluorogenic substrate H-DVal-Leu-Arg-AFC
T1 construct: purchased Callbiochem
Description: KLK1 inhibitory activity in vitro was determined using standard published methods (see e.g. Johansen et al., Int. J. Tiss. Reac. 1986, 8, 185; Shori et al., Biochem. Pharmacol., 1992, 43, 1209; Sturzebecher et al., Biol. Chem. Hoppe-Seyler, 1992, 373, 1025). Human KLK1 (Callbiochem) was incubated at 25° C. with the fluorogenic substrate H-DVal-Leu-Arg-AFC and various concentrations of the test compound. Residual enzyme activity (initial rate of reaction) was determined by measuring the change in […] at 410 nm and the IC50 value for the test compound was determined.

[2] = system: LPS-induced disseminated intravascular coagulation; details: cited from earlier work
[3] = Visual aqueous solubility; assay type: physicochemical; details: water, thermodynamic from solid
Description: Form 1 (10 mg) was weighed into a glass vial and water was added in 100 μL portions up to 3 mL then 1 mL portions thereafter. Solubility was assessed visually following a brief period of equilibration.
Form 18 (10 mg) was weighed into a glass vial and water was added in 100 μL portions up to 3 mL then 1 mL portions thereafter. Solubility was assessed visually following a brief period of equilibration.
Form 8 (10 mg) was weighed into a glass vial and water was added in 100 μL portions up to 3 mL then 1 mL portions thereafter. Solubility was assessed visually following a brief period of equilibration.
Form 15 (10 mg) was weighed into a glass vial and water was added in 100 μL portions up to 3 mL then 1 mL portions thereafter. Solubility was assessed visually following a brief period of equilibration.
Form 16 (10 mg) was weighed into a glass vial and water was added in 100 μL portions up to 3 mL then 1 mL portions thereafter. Solubility was assessed visually following a brief period of equilibration.

[4] = Stability study of Form 1 (double polyethylene bags, HDPE bottle); assay type: physicochemical; details: for Change in the XRPD diffractogram on storage: after 1 month and 3 months
Description: Further evidence of the suitability of the crystalline forms of N-[(3-fluoro-4-methoxypyridin-2-yl)methyl]-3-(methoxymethyl)-1-({4-[(2-oxopyridin-1-yl)methyl]phenyl}methyl)pyrazole-4-carboxamide for pharmaceutical development is provided by the stability data disclosed herein. Two samples of Form 1 of N-[(3-fluoro-4-methoxypyridin-2-yl)methyl]-3-(methoxymethyl)-1-({4-[(2-oxopyridin-1-yl)methyl]phenyl}methyl)pyrazole-4-carboxamide were stored at 25° C./60% RH and 40° C./75% RH packed in double polyethylene bags and sealed in a HDPE bottle.
A sample of Form 1 was packed in double polyethylene bags and sealed in a HDPE bottle and stored at conditions of 25° C./60% RH. The sample was reanalysed after 1 month and 3 months by XRPD (using Method B). No change in the XRPD diffractogram was observed when the sample was stored at 25° C./60% RH after either 1 month or 3 months.
Further tests on the sample of Form 1 stored at 25° C./60% RH were carried out as described in the table below:
A second sample of Form 1 was packed in double polyethylene bags and sealed in a HDPE bottle and stored under accelerated stability conditions of 40° C./75% RH. The sample was reanalysed after 1 month and 3 months by XRPD (using Method B). No change in the XRPD diffractogram was observed when the sample was stored at 40° C./75% RH after either 1 month or 3 months.
Further tests on the sample of Form 1 stored at 40° C./75% RH were carried out as described in the table below: […]

Slurry studies = assay type: physicochemical; details: 90/10 IPA/water, ambient temperature, 72 hrs
Description: Form 1 (20 mg) was suspended in 90/10 IPA/water (200 μL or […]) and shaken at ambient temperature for 72 hrs. The supernatant was evaporated rather than filtered due to the small volume and the resulting solid was examined by XRPD (FIG. 6).
The supernatant was evaporated rather than filtered due to the small volume and the resulting solid was examined by XRPD (FIG. 28).
The supernatant was evaporated rather than filtered due to the small volume and the resulting solid was examined by XRPD (FIG. 34).
The supernatant was evaporated rather than filtered due to the small volume and the resulting solid was examined by XRPD (FIG. 40).

[5] = Gravimetric Vapour Sorption (GVS); assay type: physicochemical
Description: Gravimetric Vapour Sorption (GVS) data were collected using the following method: Approximately 10 mg of sample was placed into a wire-mesh vapour sorption balance pan and loaded into an ‘IgaSorp’ vapour sorption balance (Hiden Analytical Instruments). The sample was then dried by maintaining a 0% humidity environment until no further weight change was recorded. Subsequently, the sample was then subjected to a ramping profile from 0-90% RH at 10% RH increments, maintaining the sample at each step until equilibration had been attained (99% step completion). Upon reaching equilibration, the % RH within the apparatus was ramped to the next step and the equilibration procedure repeated. After completion of the sorption cycle, the sample was then dried using the same procedure. The weight change during the sorption/desorption cycles were then monitored, allowing for the hygroscopic nature of the sample to be determined.

blood = blood contacted with inhibitor; cited from earlier work
[6] = in vivo; cited from earlier work; remark: listed apart in the source
[7] = system: intrinsic pathway of coagulation; details: in vitro; cited from earlier work

T1 sequence (P06870 25-262): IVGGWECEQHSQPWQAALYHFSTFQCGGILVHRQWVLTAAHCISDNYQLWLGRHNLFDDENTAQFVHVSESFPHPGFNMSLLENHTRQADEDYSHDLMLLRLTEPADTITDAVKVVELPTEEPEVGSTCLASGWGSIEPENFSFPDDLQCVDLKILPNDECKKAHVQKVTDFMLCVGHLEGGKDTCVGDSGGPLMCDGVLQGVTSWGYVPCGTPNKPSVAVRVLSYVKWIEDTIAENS

Molecule: C=Cc1cc(C(=O)Nc2ccc(C(=N)N)cc2)c(-c2ccc(C(=O)NCC3CC3)nc2C(=O)O)cc1OC [BCX4161]
- Oral availability [1]: orally available

- IC50 (Human KLK1): > 40 µM
Molecule: COCc1nn(Cc2ccc(Cn3ccccc3=O)cc2)cc1C(=O)NCc1nccc(OC)c1F [N-[(3-fluoro-4-methoxypyridin-2-yl)methyl]-3-(methoxymethyl)-1-({4-[(2-oxopyridin-1-yl)methyl]phenyl}methyl)pyrazole-4-carboxamide]

Molecule: Cl.NCC1CCC(C(=O)N[C@@H](Cc2ccccc2)C(=O)Nc2ccc(CC(=O)O)cc2)CC1 (stereo partly shown) [PKSI-527]
- Effect on platelet count, fibrinogen level and FDP level [2]: significantly suppressed the decrease in platelet count and fibrinogen level as well as the increase in FDP level

- solubility [3]: < 500 µg/mL
- Appearance ([4]; 25° C./60% RH, 1 month): Off-white
- Assay by HPLC (on an anhydrous and solvent free basis) ([4]; 25° C./60% RH, 1 month): 99.5 % w/w
- DSC Tonset ([4]; 25° C./60% RH, 1 month): 151.1 °C
- DSC Tpeak ([4]; 25° C./60% RH, 1 month): 152.4 °C
- HPLC assay (on an “as is” basis) ([4]; 25° C./60% RH, 1 month): 99.4 % w/w
- Polymorph by XRPD ([4]; 25° C./60% RH, 1 month): Conforms to
- Purity by HPLC ([4]; 25° C./60% RH, 1 month): 99.62 area %
- Total impurities ([4]; 25° C./60% RH, 1 month): 0.38 area %
- Water by Karl Fischer analysis ([4]; 25° C./60% RH, 1 month): <0.1 % w/w
- Appearance ([4]; 25° C./60% RH, 3 months): Off-white
- Assay by HPLC (on an anhydrous and solvent free basis) ([4]; 25° C./60% RH, 3 months): 99.6 % w/w
- DSC Tonset ([4]; 25° C./60% RH, 3 months): 150.8 °C
- DSC Tpeak ([4]; 25° C./60% RH, 3 months): 152.2 °C
- HPLC assay (on an “as is” basis) ([4]; 25° C./60% RH, 3 months): 99.5 % w/w
- Polymorph by XRPD ([4]; 25° C./60% RH, 3 months): Conforms to
- Purity by HPLC ([4]; 25° C./60% RH, 3 months): 99.70 area %
- Total impurities ([4]; 25° C./60% RH, 3 months): 0.30 area %
- Water by Karl Fischer analysis ([4]; 25° C./60% RH, 3 months): <0.1 % w/w
- Appearance ([4]; 25° C./60% RH, Initial): Off-white
- Assay by HPLC (on an anhydrous and solvent free basis) ([4]; 25° C./60% RH, Initial): 101.0 % w/w
- DSC Tonset ([4]; 25° C./60% RH, Initial): 151.3 °C
- DSC Tpeak ([4]; 25° C./60% RH, Initial): 152.9 °C
- HPLC assay (on an “as is” basis) ([4]; 25° C./60% RH, Initial): 100.9 % w/w
- Polymorph by XRPD ([4]; 25° C./60% RH, Initial): Conforms to
- Purity by HPLC ([4]; 25° C./60% RH, Initial): 99.70 area %
- Total impurities ([4]; 25° C./60% RH, Initial): 0.30 area %
- Water by Karl Fischer analysis ([4]; 25° C./60% RH, Initial): <0.1 % w/w
- Change in the XRPD diffractogram on storage ([4]; 25° C./60% RH): no change
- Appearance ([4]; 40° C./75% RH, 1 month): Off-white
- Assay by HPLC (on an anhydrous and solvent free basis) ([4]; 40° C./75% RH, 1 month): 99.5 % w/w
- DSC Tonset ([4]; 40° C./75% RH, 1 month): 151.1 °C
- DSC Tpeak ([4]; 40° C./75% RH, 1 month): 152.3 °C
- HPLC assay (on an “as is” basis) ([4]; 40° C./75% RH, 1 month): 99.4 % w/w
- Polymorph by XRPD ([4]; 40° C./75% RH, 1 month): Conforms to
- Purity by HPLC ([4]; 40° C./75% RH, 1 month): 99.57 area %
- Total impurities ([4]; 40° C./75% RH, 1 month): 0.43 area %
- Water by Karl Fischer analysis ([4]; 40° C./75% RH, 1 month): <0.1 % w/w
- Appearance ([4]; 40° C./75% RH, 3 months): Off-white
- Assay by HPLC (on an anhydrous and solvent free basis) ([4]; 40° C./75% RH, 3 months): 100.0 % w/w
- DSC Tonset ([4]; 40° C./75% RH, 3 months): 150.6 °C
- DSC Tpeak ([4]; 40° C./75% RH, 3 months): 152.5 °C
- HPLC assay (on an “as is” basis) ([4]; 40° C./75% RH, 3 months): 99.9 % w/w
- Polymorph by XRPD ([4]; 40° C./75% RH, 3 months): Conforms to
- Purity by HPLC ([4]; 40° C./75% RH, 3 months): 99.71 area %
- Total impurities ([4]; 40° C./75% RH, 3 months): 0.29 area %
- Water by Karl Fischer analysis ([4]; 40° C./75% RH, 3 months): 0.1 % w/w
- Appearance ([4]; 40° C./75% RH, Initial): Off-white
- Assay by HPLC (on an anhydrous and solvent free basis) ([4]; 40° C./75% RH, Initial): 101.0 % w/w
- DSC Tonset ([4]; 40° C./75% RH, Initial): 151.3 °C
- DSC Tpeak ([4]; 40° C./75% RH, Initial): 152.9 °C
- HPLC assay (on an “as is” basis) ([4]; 40° C./75% RH, Initial): 100.9 % w/w
- Polymorph by XRPD ([4]; 40° C./75% RH, Initial): Conforms to
- Purity by HPLC ([4]; 40° C./75% RH, Initial): 99.70 area %
- Total impurities ([4]; 40° C./75% RH, Initial): 0.30 area %
- Water by Karl Fischer analysis ([4]; 40° C./75% RH, Initial): <0.1 % w/w
- Change in the XRPD diffractogram on storage ([4]; 40° C./75% RH): no change
- XRPD of solid after slurry versus starting form (Slurry studies): different to that of FIG. 2a
- %-Wt (dry basis) ([5]; adsorption, about 0 %-RH): 0.04722%
- %-Wt (dry basis) ([5]; adsorption, about 10 %-RH): 0.23%
- %-Wt (dry basis) ([5]; adsorption, about 20 %-RH): 0.3541%
- %-Wt (dry basis) ([5]; adsorption, about 30 %-RH): 0.7126%
- %-Wt (dry basis) ([5]; adsorption, about 40 %-RH): 0.825%
- %-Wt (dry basis) ([5]; adsorption, about 50 %-RH): 1.207%
- %-Wt (dry basis) ([5]; adsorption, about 60 %-RH): 1.699%
- %-Wt (dry basis) ([5]; adsorption, about 70 %-RH): 1.912%
- %-Wt (dry basis) ([5]; adsorption, about 80 %-RH): 2.186%
- %-Wt (dry basis) ([5]; adsorption, about 90 %-RH): 3.226%
- %-Wt (dry basis) ([5]; desorption, about 0 %-RH): 0.000368%
- %-Wt (dry basis) ([5]; desorption, about 5 %-RH): 0.1269%
- %-Wt (dry basis) ([5]; desorption, about 15 %-RH): 0.5017%
- %-Wt (dry basis) ([5]; desorption, about 25 %-RH): 0.7008%
- %-Wt (dry basis) ([5]; desorption, about 35 %-RH): 1.017%
- %-Wt (dry basis) ([5]; desorption, about 45 %-RH): 1.525%
- %-Wt (dry basis) ([5]; desorption, about 55 %-RH): 1.685%
- %-Wt (dry basis) ([5]; desorption, about 65 %-RH): 1.865%
- %-Wt (dry basis) ([5]; desorption, about 75 %-RH): 2.116%
- %-Wt (dry basis) ([5]; desorption, about 85 %-RH): 2.547%
Molecule: COCc1nn(Cc2ccc(Cn3ccccc3=O)cc2)cc1C(=O)NCc1nccc(OC)c1F [Form 1, N-[(3-fluoro-4-methoxypyridin-2-yl)methyl]-3-(methoxymethyl)-1-({4-[(2-oxopyridin-1-yl)methyl]phenyl}methyl)pyrazole-4-carboxamide]
- Increase in water content by GVS (hygroscopicity, in words) ([5]; up to 70% relative humidity): only a relatively gradual increase in water content

Molecule: Ecallantide
- Activated clotting time (ACT) (blood): increase in activated clotting time (ACT)
- Anaphylactic reactions [6]: risks of anaphylactic reactions
- Contact activated induced coagulation [7]: delay contact activated induced coagulation
